Experimental data published in ChEMBL document CHEMBL5352429, “Designed symmetrical β-hairpin peptides for treating multidrug-resistant salmonella typhimurium infections” (Eur J Med Chem, 2022).
≈ marks a conversion by molar mass, not a printed value. Calls of active or inactive are those of the source. The calls are words filed in the database; no cut-off is given here. Peptide text beside a SMILES is read from it.

Tests used:
[1] = system: Salmonella typhimurium; test: Antibacterial activity against Salmonella typhimurium DT104 in the presence of NH4Cl by MH broth based assay; format: functional, Salmonella enterica subsp. enterica serovar Typhimurium; settings: Salmonella enterica
[2] = system: Salmonella typhimurium; test: Antibacterial activity against Salmonella typhimurium DT104 in the presence of MgCl2 by MH broth based assay; format: functional, Salmonella enterica subsp. enterica serovar Typhimurium; settings: Salmonella enterica
[3] = system: Salmonella typhimurium; test: Antibacterial activity against Salmonella typhimurium DT104 in the presence of FeCl3 by MH broth based assay; format: functional, Salmonella enterica subsp. enterica serovar Typhimurium; settings: Salmonella enterica
[4] = system: Salmonella typhimurium; test: Antibacterial activity against Salmonella typhimurium DT104 in the presence of CaCl2 by MH broth based assay; format: functional, Salmonella enterica subsp. enterica serovar Typhimurium; settings: Salmonella enterica
[5] = system: Salmonella typhimurium; test: Antibacterial activity against Salmonella typhimurium DT104 in the presence of NaCl by MH broth based assay; format: functional, Salmonella enterica subsp. enterica serovar Typhimurium; settings: Salmonella enterica
[6] = system: Salmonella typhimurium; test: Antibacterial activity against Salmonella typhimurium DT104 in the presence 50% inactivated mouse serum by MH broth based assay; format: functional, Salmonella enterica subsp. enterica serovar Typhimurium; settings: Salmonella enterica
[7] = system: Salmonella typhimurium; test: Antibacterial activity against Salmonella typhimurium DT104 in the presence 25% inactivated mouse serum by MH broth based assay; format: functional, Salmonella enterica subsp. enterica serovar Typhimurium; settings: Salmonella enterica
[8] = system: Salmonella typhimurium; test: Antibacterial activity against Salmonella typhimurium DT104 in the presence of KCl by MH broth based assay; format: functional, Salmonella enterica subsp. enterica serovar Typhimurium; settings: Salmonella enterica
[9] = Hemolytic activity in human Red blood cells assessed as hemolysis at 128 ug/ml incubated for 1 hrs by absorbance based microplate reader analysis relative to control; format: toxicity, cell-based, Erythrocyte; settings: red blood cells (erythrocytes), at 128 µg/mL, read-out: Activity
[10] = Antibacterial activity against Salmonella blockley CICC 21489 incubated overnight by standard microtiter dilution method; format: functional, Salmonella enterica subsp. enterica serovar Blockley; settings: Salmonella enterica
[11] = system: Enterococcus faecalis; test: Antibacterial activity against Enterococcus faecalis ATCC 29212 incubated overnight by standard microtiter dilution method; format: functional
[12] = system: Salmonella enterica subsp. enterica serovar Paratyphi B; test: Antibacterial activity against Salmonella paratyphi B CICC 21495 incubated overnight by standard microtiter dilution method; format: functional
[13] = system: Salmonella enteritidis; test: Antibacterial activity against Salmonella enteritidis CICC 21527 incubated overnight by standard microtiter dilution method; format: functional, Salmonella enterica subsp. enterica serovar Enteritidis; settings: Salmonella enterica
[14] = system: Staphylococcus aureus; test: Antibacterial activity against Staphylococcus aureus ATCC 29213 incubated overnight by standard microtiter dilution method; format: functional
[15] = Antibacterial activity against Salmonella paratyphi C CICC 21512 incubated overnight by standard microtiter dilution method; format: functional, Salmonella enterica subsp. enterica serovar Paratyphi C; settings: Salmonella enterica
[16] = Antibacterial activity against Salmonella dublin CICC 21497 incubated overnight by standard microtiter dilution method; format: functional, Salmonella enterica subsp. enterica serovar Dublin; settings: Salmonella enterica
[17] = system: Salmonella typhimurium; test: Antibacterial activity against Salmonella typhimurium CICC 21483 incubated overnight by standard microtiter dilution method; format: functional, Salmonella enterica subsp. enterica serovar Typhimurium; settings: Salmonella enterica
[18] = system: Lipopolysaccharide (LPS); test: Displacement of BODIPY-TR-cadaverine from Salmonella typhimurium LPS assessed as increase in fluorescence intensity by fluorescence spectrophotometric analysis; settings: Salmonella enterica subsp. enterica serovar Typhimurium; dose 0.25-8 µg/ml
[19] = Antibacterial activity against Salmonella enterica subsp. enterica serovar Choleraesuis CICC 21493 incubated overnight by standard microtiter dilution method; format: functional
[20] = system: Erythrocyte; test: Hemolytic activity in human Red blood cells assessed as hemolysis incubated for 1 hrs by absorbance based microplate reader analysis; format: toxicity, cell-based
[21] = system: Salmonella paratyphi; test: Antibacterial activity against Salmonella paratyphi A CICC 21501 incubated overnight by standard microtiter dilution method; format: functional, Salmonella enterica subsp. enterica serovar Paratyphi A; settings: Salmonella enterica
[22] = system: Candida albicans; test: Antifungal activity against Candida albicans ATCC 10231 incubated overnight by standard microtiter dilution method; format: functional
[23] = system: RAW264.7; test: Inhibition of LPS-stimulated NO production in mouse RAW264.7 cells incubated for 24 hrs by Griess reagent based analysis; format: functional, cell-based; settings: dose 1-128 µg/ml
[24] = system: Escherichia coli; test: Antibacterial activity against Escherichia coli O157:H7 CICC 21530 incubated overnight by standard microtiter dilution method; format: functional
[25] = system: Salmonella typhimurium; test: Antibacterial activity against Salmonella typhimurium DT104 ATCC 700408 incubated overnight by standard microtiter dilution method; format: functional, Salmonella enterica subsp. enterica serovar Typhimurium; settings: Salmonella enterica
[26] = Antibacterial activity against Salmonella enterica subsp. enterica serovar Choleraesuis ATCC 13312 incubated overnight by standard microtiter dilution method; format: functional
[27] = system: RAW264.7; test: Inhibition of LPS-stimulated IL-1beta production in mouse RAW264.7 cells at 1 to 128 ug/ml incubated for 24 hrs by ELISA analysis; format: functional, cell-based; settings: dose 1-128 µg/ml
[28] = system: Staphylococcus epidermidis; test: Antibacterial activity against methicillin-resistant Staphylococcus epidermidis ATCC 12228 incubated overnight by standard microtiter dilution method; format: functional
[29] = Antibacterial activity against Salmonella wandsworth CICC 21504 incubated overnight by standard microtiter dilution method; format: functional, Salmonella enterica subsp. enterica serovar Wandsworth; settings: Salmonella enterica
[30] = system: RAW264.7; test: Inhibition of LPS-stimulated IL-8 production in mouse RAW264.7 cells at 1 to 128 ug/ml incubated for 24 hrs by ELISA analysis; format: functional, cell-based; settings: dose 1-128 µg/ml
[31] = system: RAW264.7; test: Inhibition of LPS-stimulated TNF-alpha production in mouse RAW264.7 cells at 1 to 128 ug/ml incubated for 24 hrs by ELISA analysis; format: functional, cell-based; settings: dose 1-128 µg/ml
[32] = system: Salmonella typhimurium; test: Antibacterial activity against Salmonella typhimurium CICC 21913 incubated overnight by standard microtiter dilution method; format: functional, Salmonella enterica subsp. enterica serovar Typhimurium; settings: Salmonella enterica
[33] = system: Staphylococcus aureus; test: Antibacterial activity against methicillin-resistant Staphylococcus aureus ATCC 43300 incubated overnight by standard microtiter dilution method; format: functional

SMILES | MIC [1] [µg/mL] | MIC [2] [µg/mL] | MIC [3] [µg/mL] | MIC [4] [µg/mL] | MIC [5] [µg/mL] | MIC [6] [µg/mL] | MIC [7] [µg/mL] | MIC [8] [µg/mL] | hemolysis at 1 h, 128 ug/ml [9] [%] | MIC [10] [µg/mL] | MIC [11] [µg/mL] | MIC [12] [µg/mL] | MIC [13] [µg/mL] | MIC [14] [µg/mL] | MIC [15] [µg/mL] | MIC [16] [µg/mL] | MIC [17] [µg/mL] | Activity [18] | MIC [19] [µg/mL] | MHC [20] [µg/mL] | also measured
CC(C)C[C@H](NC(=O)[C@H](CCCNC(=N)N)NC(=O)CNC(=O)CNC(=O)[C@@H](N)CCCNC(=N)N)C(=O)N[C@H]1CSSC[C@@H](C(=O)N[C@H](C(=O)NCC(=O)N[C@@H](CCCNC(=N)N)C(N)=O)C(C)C)NC(=O)[C@H](C(C)C)NC(=O)[C@@H]2CSSC[C@H](NC(=O)[C@H](Cc3ccc(O)cc3)NC1=O)C(=O)N[C@@H](CCCNC(=N)N)C(=O)N[C@@H](CCCNC(=N)N)C(=O)N[C@@H](CCCNC(=N)N)C(=O)N[C@@H](Cc1ccccc1)C(=O)N2 | 8 | 8 | 32 | 16 | 16 | 64 (≈ 29.7 µM) | 32 (≈ 14.8 µM) | 8 |  |  |  |  |  |  |  |  |  |  |  |  | 
CC(C)C[C@H](NC(=O)[C@H](CCCCN)NC(=O)[C@H](CS)NC(=O)CNC(=O)[C@H](CO)NC(=O)[C@H](CCCCN)NC(=O)[C@@H](NC(=O)[C@H](CS)NC(=O)[C@H](CCCCN)NC(=O)[C@@H](N)CC(C)C)[C@@H](C)O)C(N)=O (H-LKCTKSGCKL-NH2) | > 128 | > 128 | > 128 | > 128 | > 128 | > 128 | > 128 | > 128 | < 10 | > 128 | > 128 | > 128 | > 128 | > 128 | > 128 | > 128 | > 128 | Dose-Dependent Effect | > 128 | > 128 | MIC [21]: > 128 µg/mL; MIC [22]: > 128 µg/mL; inhibition [23]: Dose-Dependent Effect; MIC [24]: > 128 µg/mL; MIC [25]: > 128 µg/mL; MIC [26]: > 128 µg/mL; inhibition [27]: Active; MIC [28]: > 128 µg/mL; MIC [29]: > 128 µg/mL; inhibition [30]: Active; inhibition [31]: Active; MIC [32]: > 128 µg/mL; MIC [33]: > 128 µg/mL
CC(C)[C@H](N)C(=O)N[C@@H](CCCCN)C(=O)N[C@@H](CS)C(=O)N[C@H](C(=O)N[C@@H](CCCCN)C(=O)N[C@@H](CO)C(=O)NCC(=O)N[C@@H](CS)C(=O)N[C@@H](CCCCN)C(=O)N[C@H](C(N)=O)C(C)C)[C@@H](C)O (H-VKCTKSGCKV-NH2) | > 128 | > 128 | > 128 | > 128 | > 128 | > 128 | > 128 | > 128 | < 10 | > 128 | 32 (≈ 30.4 µM) | > 128 | > 128 | > 128 | > 128 | > 128 | > 128 | Dose-Dependent Effect | > 128 | > 128 | MIC [21]: > 128 µg/mL; MIC [22]: > 128 µg/mL; inhibition [23]: Dose-Dependent Effect; MIC [24]: > 128 µg/mL; MIC [25]: > 128 µg/mL; MIC [26]: > 128 µg/mL; inhibition [27]: Active; MIC [28]: > 128 µg/mL; MIC [29]: > 128 µg/mL; inhibition [30]: Active; inhibition [31]: Active; MIC [32]: > 128 µg/mL; MIC [33]: > 128 µg/mL
C[C@@H](O)[C@H](NC(=O)[C@H](CS)NC(=O)[C@H](CCCCN)NC(=O)[C@@H](N)Cc1c[nH]c2ccccc12)C(=O)N[C@@H](CCCCN)C(=O)N[C@@H](CO)C(=O)NCC(=O)N[C@@H](CS)C(=O)N[C@@H](CCCCN)C(=O)N[C@@H](Cc1c[nH]c2ccccc12)C(N)=O (H-WKCTKSGCKW-NH2) | > 128 | > 128 | > 128 | > 128 | > 128 | > 128 | > 128 | > 128 | < 10 | > 128 | 128 (≈ 104 µM) | 16 (≈ 13.1 µM) | > 128 | > 128 | 64 (≈ 52.2 µM) | > 128 | > 128 | Dose-Dependent Effect | > 128 | > 128 | MIC [21]: 128 µg/mL (≈ 104 µM); MIC [22]: 64 µg/mL (≈ 52.2 µM); inhibition [23]: Dose-Dependent Effect; MIC [24]: 64 µg/mL (≈ 52.2 µM); MIC [25]: > 128 µg/mL; MIC [26]: 8 µg/mL (≈ 6.53 µM); inhibition [27]: Active; MIC [28]: 128 µg/mL (≈ 104 µM); MIC [29]: 64 µg/mL (≈ 52.2 µM); inhibition [30]: Active; inhibition [31]: Active; MIC [32]: > 128 µg/mL; MIC [33]: > 128 µg/mL
[H]/N=C(/N)N[C@H]1[C@H](O)[C@@H](O)[C@H](O[C@@H]2O[C@@H](C)[C@](O)(C=O)[C@H]2O[C@@H]2O[C@@H](CO)[C@H](O)[C@@H](O)[C@@H]2NC)[C@@H](N/C(N)=N\[H])[C@@H]1O [STREPTOMYCIN] |  |  |  |  |  |  |  |  |  |  |  |  |  |  |  |  |  |  |  | > 128 | 
